For orientation: IC50 means the concentration that gives 50% inhibition.

Here are results for 2 compounds from ChEMBL document CHEMBL1150780, “Duocarmycin-based prodrugs for cancer prodrug monotherapy” (Bioorg Med Chem, 2008).

Test [1] has as its system A549. In words: Cytotoxicity against human A549 cells after 24 hrs visualized by Lofflers methylene blue by colony forming assay. The test is classed as functional, cell-based.
Test [2] deals with A549. In words: Cytotoxicity against human A549 cells after 24 hrs visualized by Lofflers methylene blue by colony forming assay in presence of beta-D-glucuronidase. The test is classed as functional, cell-based.
Test [3] deals with A549. The test is described as follows: Ratio of IC50 for human A549 cells to IC50 for human A549 cells in presence of beta-D-glucuronidase. Format: functional.

Regarding `C[C@@H](Cl)[C@@H]1CN(C(=O)c2cc3cc(OCCN(C)C)ccc3[nH]2)c2cc(O[C@@H]3O[C@H](C(=O)O)[C@@H](O)[C@H](O)[C@H]3O)c3ccccc3c21`, the figures for the IC50 in the test with A549 [1] and with A549 [2] were 0.61 µM and 0.0009 µM, respectively. Moreover, the “Ratio IC50” value in the test on A549 [3] is reported as 700.

As to `COC(=O)[C@H]1O[C@@H](Oc2cc3c(c4ccccc24)[C@H]([C@@H](C)Cl)CN3C(=O)c2cc3cc(OCCN(C)C)ccc3[nH]2)[C@H](O)[C@@H](O)[C@@H]1O`, the figures for the IC50 with A549 [1] and with A549 [2] were 3.3 µM and 0.0021 µM, respectively. Also, in the test on A549 [3], the “Ratio IC50” value turned out to be 1600.
